Source: patent US20050004092A1, “Penem derivatives and antimicrobial agent containing the same” (DAIICHI SUNTORY PHARMA CO., LTD., priority 1995, published 2005)
Converted amounts (≈) assume the structure as drawn.

Experiments:
Test in all cases: antibacterial activity (MIC), standard in vitro dilution test
[1] = test system: MRSA 31 high-resist. (IPM resist.); format: cell-based, Staphylococcus aureus; details: test bacterium strain 10^5 cfu/ml; for MIC: Staphylococcus aureus, MRSA, read-out: MIC, MRSA 31 high-resist. (IPM resist.)
Excerpt: (§1) With respect to certain compounds (I) of the present invention, their general antibacterial activities and their antibacterial activities (MIC) against various methicillin-resistant strains of Staphylococcus aureus (methicillin-resistant Staphylococcus aureus: MRSA) were investigated. The results will be shown next.
(§2) Of the investigations, the general antibacterial activities were investigated by a standard in vitro dilution test.
(§3) As test bacteria, Staphylococcus aureus 209P JC-1, Escherichia coli NIHJ JC-2 and MRSAs were used.

[2] = test system: MRSA 33 high-resist. (IPM resist.); format: cell-based, Staphylococcus aureus; details: test bacterium strain 10^5 cfu/ml; for MIC: Staphylococcus aureus, MRSA, read-out: MIC, MRSA 33 high-resist. (IPM resist.)
Excerpt: as §1, §2, §3

[3] = test system: Escherichia coli NIHJ JC-2 strain; format: cell-based; details: for MIC: Escherichia coli, NIHJJC2, test bacterium strain 10^5 cfu/ml, read-out: MIC, Escherichia coli NIHJ JC-2 strain; for MIC, Escherichia coli NIHJ JC-2 strain: test bacterium strain 10^5 cfu/ml
Excerpt: as §1, §2, §3

[4] = test system: Staphylococcus aureus 209P JC-1 strain; format: cell-based; details: test bacterium strain 10^5 cfu/ml; for MIC: Staphylococcus aureus, 209P, read-out: MIC, Staphylococcus aureus 209P JC-1 strain
Excerpt: as §1, §2, §3

Row | SMILES | MIC [1] [µg/mL] | MIC [2] [µg/mL] | MIC [3] [µg/mL] | MIC [4] [µg/mL] | MIC, MRSA 31 high-resist. (IPM resist.) [1] [µg/mL] | MIC, MRSA 33 high-resist. (IPM resist.) [2] [µg/mL] | MIC, Escherichia coli NIHJ JC-2 strain [3] [µg/mL] | MIC, Staphylococcus aureus 209P JC-1 strain [4]
1 | CC[C@H](O)[C@@H]1C(=O)N2C(C(=O)O)=C(SCCNC(C)=N)S[C@H]12 [Ex. 131, (5R,6R)-2-(2-(1-iminoethylamino)-ethyl)thio-6-((S)-1-hydroxypropyl)penem-3-carboxylic acid] | 6.25 (≈ 18.1 µM) | 6.25 (≈ 18.1 µM) | 0.78 (≈ 2.26 µM) | 0.1 (≈ 0.289 µM) | – | – | – | –
2 | CC[C@H](O)[C@@H]1C(=O)N2C(C(=O)O)=C(SC3CCN(C4CCCC4)C3)S[C@H]12 (stereo partly shown) [Ex. 227] | 6.25 (≈ 15.7 µM) | 6.25 (≈ 15.7 µM) | 0.78 (≈ 1.96 µM) | 0.1 (≈ 0.251 µM) | – | – | – | –
3 | CC[C@H](O)[C@@H]1C(=O)N2C(C(=O)O)=C(Sc3ccccc3)S[C@H]12 [Ex. 151, (5R,6R)-6-((S)-1-hydroxypropyl)-2-phenylthiopenem-3-carboxylic acid] | 6.25 (≈ 18.5 µM) | 6.25 (≈ 18.5 µM) | 25 (≈ 74.1 µM) | 0.1 (≈ 0.296 µM) | – | – | – | –
4 | CC[C@H](O)[C@@H]1C(=O)N2C(C(=O)O)=C(Sc3nc(-c4ccccc4)cs3)S[C@H]12 [Ex. 152, (5R,6R)-6-((S)-1-hydroxypropyl)-2-(4-phenylthiazol-2-yl)thiopenem-3-carboxylic acid] | 3.13 (≈ 7.44 µM) | 3.13 (≈ 7.44 µM) | 50 (≈ 119 µM) | 0.05 (≈ 0.119 µM) | – | – | – | –
5 | CC[C@H](O)[C@@H]1C(=O)N2C(C(=O)O)=C(SC3CCN(C(=N)NC(=O)c4ccccc4)C3)S[C@H]12 (stereo partly shown) [Ex. 218] | 6.25 (≈ 13.1 µM) | 6.25 (≈ 13.1 µM) | 25 (≈ 52.5 µM) | 0.2 (≈ 0.42 µM) | – | – | – | –
6 | CC[C@H](O)[C@@H]1C(=O)N2C(C(=O)O)=C(S[C@H]3CCN(CC(=O)c4ccc5c(c4)OCO5)C3)S[C@H]12 [Ex. 207] | 6.25 (≈ 12.7 µM) | 6.25 (≈ 12.7 µM) | 0.39 (≈ 0.792 µM) | 0.1 (≈ 0.203 µM) | – | – | – | –
7 | CC[C@H](O)[C@@H]1C(=O)N2C(C(=O)O)=C(SC3CN(C=N)C3)S[C@H]12 [Ex. 254] | 6.25 (≈ 18.2 µM) | 6.25 (≈ 18.2 µM) | 0.78 (≈ 2.27 µM) | 0.1 (≈ 0.291 µM) | – | – | – | –
8 | CC[C@H](O)[C@@H]1C(=O)N2C(C(=O)O)=C(S[C@H]3CCN(CC(=O)c4ccccc4)C3)S[C@H]12 [Ex. 111, (5R,6R)-6-((S)-1-hydroxypropyl)-2-((S)-1-phenacylpyrrolidin-3-yl)thiopenem-3-carboxylic acid] | 3.13 (≈ 6.98 µM) | 3.13 (≈ 6.98 µM) | 0.2 (≈ 0.446 µM) | 0.1 (≈ 0.223 µM) | – | – | – | –
9 | CC[C@H](O)[C@@H]1C(=O)N2C(C(=O)O)=C(SCc3ccncc3)S[C@H]12 [Ex. 224] | 3.13 (≈ 8.88 µM) | 3.13 (≈ 8.88 µM) | 3.13 (≈ 8.88 µM) | 0.2 (≈ 0.567 µM) | – | – | – | –
10 | CC[C@H](O)[C@@H]1C(=O)N2C(C(=O)O)=C(S[C@H]3CCN(CCCC(=O)c4ccccc4)C3)S[C@H]12 [Ex. 215] | 6.25 (≈ 13.1 µM) | 6.25 (≈ 13.1 µM) | 3.13 (≈ 6.57 µM) | 0.1 (≈ 0.21 µM) | – | – | – | –
11 | CC[C@H](O)[C@@H]1C(=O)N2C(C(=O)O)=C(SC3CCN(C/C=C/c4ccccc4)C3)S[C@H]12 (stereo partly shown) [Ex. 228] | 3.13 (≈ 7.01 µM) | 3.13 (≈ 7.01 µM) | 12.5 (≈ 28 µM) | 0.05 (≈ 0.112 µM) | – | – | – | –
12 | CC[C@H](O)[C@@H]1C(=O)N2C(C(=O)O)=C(SC3CCCN(Cc4ccccc4)C3)S[C@H]12 (stereo partly shown) [Ex. 125*^4] | 6.25 (≈ 14.4 µM) | 6.25 (≈ 14.4 µM) | 12.5 (≈ 28.8 µM) | 0.2 (≈ 0.46 µM) | – | – | – | –
13 | CC[C@H](O)[C@@H]1C(=O)N2C(C(=O)O)=C(SCc3ccc(Cl)c(Cl)c3)S[C@H]12 [Ex. 236] | 1.56 (≈ 3.71 µM) | 1.56 (≈ 3.71 µM) | 50 (≈ 119 µM) | 0.1 (≈ 0.238 µM) | – | – | – | –
14 | CC[C@H](O)[C@@H]1C(=O)N2C(C(=O)O)=C(S[C@H]3CCN(CCC(=O)c4ccccc4)C3)S[C@H]12 [Ex. 116, (5R,6R)-2-((S)-1-(2-benzoylethyl)-pyrrolidin-3-yl)thio-6-((S).-1-hydroxypropyl)-penem-3-carboxylic acid] | 3.13 (≈ 6.77 µM) | 3.13 (≈ 6.77 µM) | 0.2 (≈ 0.432 µM) | 0.05 (≈ 0.108 µM) | – | – | – | –
15 | CC[C@H](O)[C@@H]1C(=O)N2C(C(=O)O)=C(SCc3nc4ccccc4[nH]3)SC12 (stereo partly shown) [Ex. 205] | 3.13 (≈ 8 µM) | 3.13 (≈ 8 µM) | 3.13 (≈ 8 µM) | 0.1 (≈ 0.255 µM) | – | – | – | –
16 | CC[C@H](O)[C@@H]1C(=O)N2C(C(=O)O)=C(SCCN3CCCC3)S[C@H]12 [Ex. 143, (5R,6R)-6-((S)-1-hydroxypropyl)-2-(2-(pyrrolidin-1-yl)ethyl)thiopenem-3-carboxylic acid] | 6.25 (≈ 17.4 µM) | 6.25 (≈ 17.4 µM) | 3.13 (≈ 8.73 µM) | 0.39 (≈ 1.09 µM) | – | – | – | –

Results, then the molecule that gave them:

Row | MIC [1] [µg/mL] | MIC [2] [µg/mL] | MIC [3] [µg/mL] | MIC [4] [µg/mL] | MIC, MRSA 31 high-resist. (IPM resist.) [1] [µg/mL] | MIC, MRSA 33 high-resist. (IPM resist.) [2] [µg/mL] | MIC, Escherichia coli NIHJ JC-2 strain [3] [µg/mL] | MIC, Staphylococcus aureus 209P JC-1 strain [4] | SMILES
17 | 1.56 (≈ 3.84 µM) | 1.56 (≈ 3.84 µM) | > 12.5 | 0.1 (≈ 0.246 µM) | – | – | – | – | CC[C@H](O)[C@@H]1C(=O)N2C(C(=O)O)=C(SC3CCN(c4ccccc4)C3)S[C@H]12 (stereo partly drawn) [Ex. 105, (5R,6R)-6-((S)-1-hydroxypropyl)-2-(1-phenylpyrrolidin-3-yl)thiopenem-3-carboxylic acid]
18 | 3.13 (≈ 7.57 µM) | 3.13 (≈ 7.57 µM) | 12.5 (≈ 30.2 µM) | 0.1 (≈ 0.242 µM) | – | – | – | – | CC[C@H](O)[C@@H]1C(=O)N2C(C(=O)O)=C(S[C@H]3CCN(c4nccs4)C3)S[C@H]12 [Ex. 229]
19 | – | – | – | 0.1 (≈ 0.264 µM) | 1.56 (≈ 4.12 µM) | 1.56 (≈ 4.12 µM) | 3.13 (≈ 8.27 µM) | – | CC[C@H](O)[C@@H]1C(=O)N2C(C(=O)O)=C(SC3CCc4cccnc43)S[C@H]12 (stereo partly shown) [Ex. 231]
20 | 3.13 (≈ 7.68 µM) | 3.13 (≈ 7.68 µM) | 6.25 (≈ 15.3 µM) | 0.1 (≈ 0.245 µM) | – | – | – | – | CC[C@H](O)[C@@H]1C(=O)N2C(C(=O)O)=C(S[C@H]3CCN(c4ccccn4)C3)S[C@H]12 [Ex. 204]
21 | 6.25 (≈ 16.9 µM) | 6.25 (≈ 16.9 µM) | 0.78 (≈ 2.11 µM) | 0.1 (≈ 0.27 µM) | – | – | – | – | CC[C@H](O)[C@@H]1C(=O)N2C(C(=O)O)=C(SC3CCN(C4CC4)C3)S[C@H]12 (stereo partly shown) [Ex. 235]
22 | – | – | – | – | 3.13 (≈ 8.45 µM) | 3.13 (≈ 8.45 µM) | 0.39 (≈ 1.05 µM) | ≦0.025 μg/ml | C=CCN1CCC(SC2=C(C(=O)O)N3C(=O)[C@@H]([C@@H](O)CC)[C@H]3S2)C1 (stereo partly drawn) [Ex. 18, (5R,6R)-2-(1-allyl-3-pyrrolidine)-thio-6-((S)-1-hydroxypropyl)penem-3-carboxylic acid]
23 | – | – | – | – | 3.13 (≈ 8.27 µM) | 3.13 (≈ 8.27 µM) | 12.5 (≈ 33 µM) | 0.05 µg/mL (≈ 0.132 µM) | CC[C@H](O)[C@@H]1C(=O)N2C(C(=O)O)=C(SC3CCc4cccnc43)S[C@H]12 (stereo partly shown) [Ex. 232]
24 | 6.25 (≈ 15.3 µM) | 6.25 (≈ 15.3 µM) | 25 (≈ 61.2 µM) | 0.39 (≈ 0.955 µM) | – | – | – | – | CC[C@H](O)[C@@H]1C(=O)N2C(C(=O)O)=C(S[C@H]3CCN(c4ncccn4)C3)S[C@H]12 [Ex. 209]
25 | 3.13 (≈ 6.77 µM) | 1.56 (≈ 3.37 µM) | 12.5 (≈ 27 µM) | 0.05 (≈ 0.108 µM) | – | – | – | – | CC[C@H](O)[C@@H]1C(=O)N2C(C(=O)O)=C(S[C@H]3CCN(c4ccc(NC(C)=N)cc4)C3)S[C@H]12 [Ex. 257]
26 | – | – | – | – | 3.13 (≈ 8.45 µM) | 3.13 (≈ 8.45 µM) | 0.39 (≈ 1.05 µM) | 0.10 µg/mL (≈ 0.27 µM) | C=CCN1CCC(SC2=C(C(=O)O)N3C(=O)[C@@H]([C@@H](O)CC)[C@H]3S2)C1 (stereo partly drawn) [Ex. 17, (5R,6R)-2-(1-allyl-3-pyrrolidine)-thio-6-((S)-1-hydroxypropyl)penem-3-carboxylic acid]
27 | 6.25 (≈ 16 µM) | 6.25 (≈ 16 µM) | 0.78 (≈ 2 µM) | 0.1 (≈ 0.257 µM) | – | – | – | – | CC[C@H](O)[C@@H]1C(=O)N2C(C(=O)O)=C(S[C@H]3CCN(C(=N)CF)C3)S[C@H]12 [Ex. 253]
28 | 6.25 (≈ 16.3 µM) | 6.25 (≈ 16.3 µM) | 0.78 (≈ 2.03 µM) | 0.2 (≈ 0.52 µM) | – | – | – | – | CC[C@H](O)[C@@H]1C(=O)N2C(C(=O)O)=C(S[C@H]3CCN(CC4CC4)C3)S[C@H]12 [Ex. 230]
